Test results published in patent US11992469B2, “Targeting mitochondrial dynamics by mitochondrial fusion promoter M1 as a treatment strategy for nervous system injury” (City University of Hong Kong, priority 2020, dated 2024).

Columns and labels:
[1] = system: adult dorsal root ganglion (DRG) neurons; assay: Neurite outgrowth assay in primary cultures of axotomized adult DRG neurons; type: cell-based, C57BL/6 mice; details: 2.5 μM, 17 hours
Experimental: FIG. 1 depicts data showing that M1 increases the length of regenerating axons which is directly proportional to the size of mitochondria in DRG neurons. Wildtype adult DRG neurons were treated with M1 at a concentration of 2.5 μM, and 0.1% DMSO was used as vehicle controls. After 17 hours of incubation, cultures were fixed and immunostained with anti-βIII-tubulin antibodies for neurite outgrowth assay. […] Scale bar: 500 μm. […] More than 80 DRG neurons were quantified from each treatment group. Mean±SEM of triplicates. ***P<0.001; Student's t-test. n.s., not significant. CTL, control.
The current study aimed to investigate the therapeutic potential of mitochondrial fusion promoter M1 for treating patients with nerve injuries. First, we examined if mitochondrial fusion promoter M1 could enhance the intrinsic growth capacity of adult neurons, a critical determinant for successful axon regeneration after nerve injuries. We used primary cultures of axotomized dorsal root ganglion (DRG) neurons as an in vitro model to assess the extent of neurite outgrowth after treating the neurons with mitochondrial fusion promoter M1. Primary cultures of DRG neurons were prepared from adult C57BL/6 mice (8-12 weeks old). The DRG neurons were first dissected out, digested with collagenase/dispase II solution (Roche Diagnostics), trypsinized and dissociated mechanically by three flame-polish Pasteur pipettes with different diameters. […]
For neurite outgrowth assay, 30 non-overlapping images were captured at 10× magnifications using Nikon Ni-E epifluorescence microscope equipped with a motorized stage. Total neurite length of each neuron from each condition were automatically measured using WIS-NeuroMath software (Weizmann Institute of Science). At least 250 neurons were quantified from each condition to obtain the average total neurite length. […]

[2] = system: sciatic nerve crush injury (peripheral nerve injury model); assay: Sciatic nerve pinch test after sciatic nerve crush injury; type: in vivo, C57BL/6 mice; details: 3 days after injury
Experimental: (§1) FIG. 2 depicts an experimental paradigm for assessing the growth-promoting effects of mitochondrial fusion promoter M1 after peripheral nerve injury. Sciatic nerve crush injury was performed on adult male C57BL/6 mice. Immediately after crush, 20-60 μg of mitochondrial fusion promoter M1 was directly applied on top of the crushed site, followed by a total of 6 administrations (i.e. morning and evening administration with at least 8 hours apart). Sciatic nerve pinch test and axon quantification were performed on day 3 post-injury.
FIG. 3 depicts data showing that mitochondrial fusion promoter M1 accelerates in vivo axonal regrowth after sciatic nerve crush injury in adult mice. […] Sciatic nerve pinch test and axon quantification were performed 3 days after injury. […]
(§2) We first confirmed the growth-promoting effects of mitochondrial fusion promoter M1 using sciatic nerve pinch test. The results from sciatic nerve pinch test were subsequently verified by quantifications of GAP-43-positive regenerating axons 3 days after sciatic nerve crush injury.
Following the completion of dosing paradigm of M1, sciatic nerve pinch test was performed on the ipsilateral nerves 3 days after sciatic nerve crush injury. […] The distance (in mm) was recorded from the crushed site to the most distal point of the nerve where initial withdrawal response was generated after pinching (FIG. 3A).

[3] = system: sciatic nerve crush injury (peripheral nerve injury model); assay: Quantification of GAP-43-positive regenerating axons after sciatic nerve crush injury; type: in vivo, C57BL/6 mice; details: 3 days after injury; 5 mm distal to crushed site
Experimental: as §1
FIG. 3 depicts data showing that mitochondrial fusion promoter M1 accelerates in vivo axonal regrowth after sciatic nerve crush injury in adult mice. Sciatic nerve crush injury was performed on adult C57BL/6 mice (8-12 weeks old). A total of 6 administrations of mitochondrial fusion promoter M1 was directly applied to the crushed site for 3 consecutive days. Sciatic nerve pinch test and axon quantification were performed 3 days after injury. […]
as §2

[4] = system: optic nerve crush injury (CNS injury model); assay: Axon regeneration (CTB-555-labelled axons) after optic nerve crush injury; type: in vivo, C57BL/6 mice
[5] = system: retinal ganglion cells (RGCs); assay: Retinal ganglion cell (RGC) survival after optic nerve crush injury (RBPMS staining); type: in vivo, C57BL/6 mice
[6] = system: optic nerve crush injury (CNS injury model); assay: Optogenetic stimulation of RGCs and local field potential (LFP) recordings in superior colliculus after optic nerve crush; type: in vivo, mice; details: for eye-evoked RMS LFP amplitude in superior colliculus: six weeks after optic nerve crush
Experimental: Two weeks before LFP recordings, AAV overexpressing a fusion of channelrhodopsin 2 and mCherry was injected into the injured eye of the mice. […] Blue lines indicated optical stimulation in the injured eye. (B) Eye-evoked root-mean-square (RMS) LFP amplitudes were automatically determined using Spike2 software with customized MATLAB program. Administration of M1 markedly elevated the eye-evoked RMS LFP amplitudes compared with vehicle-treated controls. Combination of phosphatase and tensin homolog (Pten) deletion and M1 treatment further increased the RMS LFP amplitudes after optical stimulations of injured RGCs. Mean±SEM (n=4-5 per group). *P<0.05, one-way ANOVA with Bonferroni post-hoc test.
To record evoked LFP in SC, mice received intravitreal injection of AAV-ChR2-mCherry […]. Six weeks after optic nerve crush injury, we stimulated the injured RGCs by placing an optical fiber with blue laser at 473 nm illuminated at the periphery of the left eye (injured). Evoked LFPs in response to the optical stimuli from ChR2-overexpressing RGCs were recorded in the SC. There were virtually no LFP amplitudes that could be detected from the vehicle-treated mice (FIG. 7A), which was consistent with the histology results. […] Treating the mice with M1 and Pten deletion restored almost 25% of the maximal LFP amplitude compared with uninjured mice.
To optically stimulate the RGCs in vivo, AAV expressing a fusion of channelrhodopsin-2 and mCherry (AAV-ChR2-mCherry) at viral titre of 1×10^13 vg/ml was injected intravitreally into both eyes two weeks before optogenetics experiments. For intravitreal injection, a micropipette was gently inserted into the peripheral retina of the eye, just behind the ora serrata, placed with an angle to avoid damages to the lens. […]
The data recorded from the system was used as digital input signals for synchronization of the optogenetics setup. Data were analyzed offline using spike2 software (Version 8) and customized MATLAB program. Root-mean-square (RMS) amplitudes after optical stimulation was calculated (FIG. 7).

[7] = system: MEF Mfn1−/− or Mfn2−/− cultures; details: Mfn1 or Mfn2 knockout; cited from earlier work
[8] = system: dopaminergic neuron-like SH-SY5Y cells; details: 1-methyl-4-phenyl-pyridinium (MPP+); cited from earlier work

With `CC(=NNc1c(Cl)cc(Cl)cc1Cl)c1cc(Cl)ccc1O` [M1] the “cell survival of DRG neurons” value [1] was “no cell survival effect”, the “mitochondrial size in DRG neurons (distal axons)” value [1] was “increase in mitochondrial size” and the “increase in neurite outgrowth from adult DRG neurons” value ([1]; vs 0.1% DMSO vehicle) was 49%. For the same compound, the “dose of maximal effect on distal extent of axonal regrowth (pinch test)” value [2] was 20 µg/day, the “increase in most distal axonal regrowth (sciatic nerve pinch test)” value ([2]; 20-60 μg applied to crushed site, 6 administrations) was 55% and the “increase in number of GAP-43-positive regenerating axons vs vehicle controls” value [3] was 2 fold. The “axon regeneration after optic nerve crush” value ([4]; day 14 post-injury, 1 μg intravitreal at days 0 and 7) was “robust axon regeneration”, the “distance reached by regenerating axons” value ([4]; day 28 post-injury) was “reach the optic chiasm” and the “axon regeneration after optic nerve crush” value ([4]; day 28 post-injury, 1 μg intravitreal at days 0, 7, 14 and 21) was “robust axon regeneration”. The “distance reached by regenerating axons” value ([4]; six weeks after optic nerve crush injury, intravitreal injection) was “reaching superior colliculus”, the “RGC survival vs vehicle-treated controls” value ([5]; 14 days after optic nerve crush injury) was “more retinal ganglion cells (RGCs) were survived” and the “RGC survival vs vehicle-treated controls” value ([5]; 28 days after optic nerve crush injury) was “more retinal ganglion cells (RGCs) were survived”. For the same compound, the “restored share of maximal LFP amplitude compared with uninjured mice” value ([6]; M1 and Pten deletion) was about 25%, the “eye-evoked RMS LFP amplitude in superior colliculus” value ([6]; M1-treated mice) was 59.82±3.6 μV and the “eye-evoked RMS LFP amplitude in superior colliculus” value ([6]; Pten-knockout (Pten-KO) and M1-treated mice) was 88.36±3.13 μV. The “restoration of mitochondrial fragmentation” value [7] was “completely restored” and the “protection from MPP+-induced neurotoxicity” value [8] was “protected”.
